According to PMC10096453, “One-Pot Synthesis and Evaluation of Antioxidative Stress and Anticancer Properties of an Active Chromone Derivative” (Molecules, 2023):
Values joined by “and” are separate entries in the source; they are usually repeats but may differ in a detail not shown here. Identical values can stand only once.

Legend:
[1] = FRAP (ferric reducing antioxidant power) assay; format: biochemical; conditions: Trolox equivalent
Excerpt: Three in vitro antioxidant assays (DPPH, FRAP, and ABTS) were utilized to evaluate the antioxidant property of the synthesized compounds. The DPPH (α, α-diphenyl-β-picrylhydrazyl) assay is the well-known approach to determine antioxidant activity using a stable free radical DPPH, measure the absorbance change, and calculate the absorbance change in the percentage of scavenging activity. […] For example, the ferric-tripyridyltriazine (Fe^3+-TPTZ, colorless) complex is reduced to ferrous tripyridyltriazine (Fe^2+-TPTZ) at low pH and introduces a blue color with maximum absorption at 593 nm. The change in absorbance is related to antioxidant activity. However, a significant limitation of these in vitro tests is the non-physiological measurement conditions (no enzymatic condition and no transition metal ion chelating activity); therefore, the results obtained may not reflect the antioxidant activity of the source material under the biological conditions that exist in humans and animals. The ABTS assay involves a more drastic radical that is chemically produced. The use of ABTS for antioxidant activity determination of hydrophilic and lipophilic pure compounds has attracted interest due to its solubility in organic and aqueous media and stability in a wide pH range [31].
The FRAP assay is a method for assessing antioxidant power. Briefly, the FRAP reagent was prepared from acetate buffer pH 3.6, 10 mM TPTZ solution in 40 mM HCl and 20 mM FeCl3.6 H2O in relative proportions of 10:1:1, v/v, respectively. The FRAP reagent was freshly prepared daily. A solution of 5 μL of the sample (3–300 μM, approx.) was mixed with 180 μL of the FRAP reagent in a 96-well plate. The mixture was shaken in the dark for 10 min and incubated at 37 °C for 20 min, and the absorbance was determined at 593 nm. The solution without the sample was used as a blank. All determinations were made in triplicate. Trolox was used as a standard antioxidant and plot the calibration curve between absorbance and concentration. Quercetin was applied as the reference compound. The FRAP values were calculated by comparing the absorbance change in the test sample and represented in μM of Trolox equivalent per μM of sample.

[2] = MTT cytotoxicity assay, HEK293 cells; format: cell-based; conditions: human, HEK293 cells, 100 μM; for viability at 24 h, 100 µM: read-out: % Viability ± SD (at 100 μM) HEK293 24 h; for viability at 48 h, 100 µM: read-out: % Viability ± SD (at 100 μM) HEK293 48 h
Protocol: HEK293, HACAT, and HeLa cells were grown in modified Eagles’ minimum essential medium (EMEM, Gibco) with 10% fetal bovine serum (FBS, Gibco), 1% of 100 U/mL streptomycin and 100 U/mL penicillin (Gibco). Cells were seeded in culture flasks and maintained in an incubator at 37 °C in a humidified atmosphere with 5% CO2. After reaching 80–90% of confluence, cells were detached by incubation with 0.25% trypsin-0.2% EDTA (Gibco) for 5 min and plated for experiments.
This study examined cell cultures of HEK293, HACAT, and HeLa cells. The cytotoxicity of the test samples was carried out by the MTT (3-(4,5-dimethylthiazol-2-yl)-2,5-diphenyltetrazolium bromide) assay. The cells were seeded in 96-well microliter plates (2.0 × 10^4 cells/well). Stock solutions of the test compounds were prepared in DMSO. After 24 h, cells were treated with different concentrations of samples and diluted with media to obtain the final desired concentration. The treated cells were then incubated at 37 °C and 5% CO2 for 24 and 48 h. After incubation, the medium was replaced with 0.05% w/v of MTT solution in PBS and further incubated for 3 h. The solution was then discarded and DMSO was added to dissolve the formed formazan crystals. Each well’s absorbance (A) was measured at 570 nm using a microplate reader (FLUOstar Omega^TM, BMG Labtech, Ortenberg, Germany). All experiments were carried out in triplicate and repeated for at least three experiments.

HEK293 cells = assay: Protection against H2O2-induced cytotoxicity (MTT); format: cell-based; conditions: 100 μM; HEK293, 7.5 mM H2O2 30 min
Protocol: The synthesized compounds were examined for the ability of the compounds to protect cells exposed to oxidative stress. Six active compounds from the antioxidant test, 2b, 2d, 2e, 2f, 2j, and 3i, were selected to study the ability of oxidative stress protection. The HEK293 cells were treated with 7.5 mM hydrogen peroxide for 30 min; samples and quercetin were added, and cell viability was investigated at 12 and 24 h treatment. The percentage of viable cells in each sample was calculated using the untreated cell as 100% survival (Figure 3).
Figure 3 Protective effect of synthesized compounds on H2O2-induced cytotoxicity in cultured HEK cells (means ± SD, n = 3). Data (cell viability, measured by the MTT assay) were expressed as a percentage of the control group, which is 100%. The results were calculated from three independent experiments and are shown as mean ± SD. Compared to the H2O2 model group, the p values were calculated using a one-way ANOVA with Tukey (Turkey HSD) multiple comparison analysis; * p < 0.05 at 12 h treatment, # p < 0.05 at 24 h treatment.

HeLa cells [3] = assay: Cell cycle analysis by flow cytometry; format: cell-based; conditions: 24 h, 2f, 2j, quercetin at IC50, paclitaxel 5 μM
Protocol: The paclitaxel (5 μM) was performed as the positive control.
The treatment of HeLa cells and compounds was the same as in the apoptosis protocol. The cells were harvested for 200 μL and centrifuged at 600× g for 5 min and washed with PBS. The mixing cells were slowly added 200 μL of ice-cold 70% ethanol and incubated for at least 3 h at −20 °C. Cells were centrifuged and washed with PBS. Finally, cells were stained with 200 μL of Muse® cell cycle reagent and incubated at room temperature for 30 min in the dark. The cell was analyzed by flow cytometry (Guava Muse Cell Analyzer, Luminex, Austin, TX, USA).

HeLa cells [4] = assay: Cell migration/invasion scratch assay, HeLa; format: cell-based; conditions: 100 μM, 24 h
Protocol: Cell migration in the HEK293 and the HeLa cell lines was investigated. The assay was conducted to investigate cell maintenance after being damaged. […] Cells were grown in a 24-well plate until 80% confluence and treated with 2f and 2j for 24 or 48 h compared to the untreated control. The cells in each well were then scratched to create a wound area across the center of the plates using a plastic 20 μL pipette tip. Cell images were taken immediately, and the scratch area was measured at 0, 24, and 48 h. During the experiment, the percentage of wound area was tracked as an indirect assessment. Compared to the control, the percentage of empty area change at each time point was quantified with a Nikon eclipse Ts2R inverted microscope.
Pictures were taken at the start of the experiment (0 h) and 24 h later. […] Scale bars represent 500 μm.

SMILES	FRAP593nm Value ± SD (TE) [1]	viability at 24 h, 100 µM [2] [%]	viability at 48 h, 100 µM [2] [%]	Protection of cells from oxidative stress (HEK293 cells)	Cell cycle phase arrest (HeLa cells [3])	Cell population in G0/G1 phase (HeLa cells [3]) [%]	Cell population in G2/M phase (HeLa cells [3]) [%]	Cell population in S phase (HeLa cells [3])	Invasion of HeLa cells (HeLa cells [4])	Cell population in S phase (HeLa cells [3]; listed as quercetin) [%]
O=C(c1ccccc1)c1c(-c2ccccc2)oc2c(O)c(O)ccc2c1=O [2f, 3-Benzoyl-7,8-dihydroxy-2-phenyl-4H-chromen-4-one]	1.70 ± 0.138 µM Trolox/1 µM of Synthesized Compounds	105 ± 1.19	74.7 ± 0.83	able to protect cells from oxidative stress	S phase arrest	41.26 ± 1.21	24.71 ± 4.02	34.03% and 34.03 ± 3.81 %	significantly inhibited the invasion of HeLa cells	–
O=C(Oc1ccc2c(=O)c(C(=O)c3ccccc3)c(-c3ccccc3)oc2c1O)c1ccccc1 [2j, 3-Benzoyl-8-hydroxy-4-oxo-2-phenyl-4H-chromen-7-yl benzoate]	0.34 ± 0.078 µM Trolox/1 µM of Synthesized Compounds	96 ± 2.62	71.6 ± 5.19	able to protect cells from oxidative stress	S phase arrest	32.90 ± 4.05	35.49 ± 4.98	31.61% and 31.61 ± 0.93 %	significantly inhibited the invasion of HeLa cells	–
O=c1c(O)c(-c2ccc(O)c(O)c2)oc2cc(O)cc(O)c12 [Quercetin, quercetin, reference compound]	3.35 ± 0.231 µM Trolox/1 µM of Synthesized Compounds	102 ± 1.58	86.6 ± 4.66	–	S phase arrest	35.72 ± 2.67	26.40 ± 0.18	37.88 ± 2.75 %	significantly inhibited the invasion of HeLa cells	37.88
